Patent US12187705B2, “Heteroaryl-triazole and heteroaryl-tetrazole compounds as pesticides” (Bayer Aktiengesellschaft, priority 2018, dated 2025)

Assays:
Assay type in all cases: in vivo
Diabrotica balteata = Diabrotica balteata spray test; settings: Diabrotica balteata, 168 h; 160 μg/well, wheat seeds, after 7 days; read-out: efficacy (seedlings grown)
Experimental: Diabrotica balteata—Spray Test
(§1) To produce a suitable preparation of active compound, 1 part by weight of active compound is mixed with the stated amount of solvent, and the concentrate is diluted with water, containing an emulsifier concentration of 1000 ppm, to the desired concentration. Further test concentrations are prepared by dilution with emulsifier containing water.
Soaked wheat seeds (Triticum aestivum) are placed in a multiple well plate filled with agar and some water and are incubated for 1 day to germinate (5 seeds per well). The germinated wheat seeds are sprayed with a test solution containing the desired concentration of the active ingredient. Afterwards each unit is infected with 10-20 larvae of the banded cucumber beetle (Diabrotica balteata).
After 7 days efficacy in % is determined. 100% means all the seedlings have grown up like in the untreated, uninfected control; 0% means none of the seedlings have grown.

Myzus persicae [1] = assay: Myzus persicae oral test; settings: 120 h
Experimental: To produce a suitable preparation of active compound, 1 part by weight of active compound is mixed with the stated amount of solvent, and the concentrate is diluted with water to the desired concentration.
50 μl compound solution is filled in microtiter plates and 150 μl IPL41 insect medium (33%+15% sugar) is added to obtain a total volume of 200 μl per well. Afterwards the plates are sealed with parafilm through which a mixed population of the green peach aphid (Myzus persicae) can suck on the compound preparation.
(§2) After 5 days mortality in % is determined. 100% means all aphids have been killed and 0% means none of the aphids have been killed.

Nezara viridula = Nezara viridula spray test; settings: in Hordeum vulgare, 96 h
Experimental: Nezara viridula—Spray Test
as §1
Barley plants (Hordeum vulgare) infested with larvae of the southern green stink bug (Nezara viridula) are sprayed with a test solution containing the desired concentration of the active ingredient.
After 4 days mortality in % is determined. 100% means all the stink bugs have been killed; 0% means none of the stink bugs have been killed.

Nilaparvata lugens = Nilaparvata lugens spray test; settings: Nilaparvata lugens, in Oryza sativa, 96 h
Experimental: Nilaparvata lugens—Spray Test
as §1, with “solvents” for “solvent,”, “and” for “and the concentrate”
Rice plants (Oryza sativa) are sprayed with a preparation of the active ingredient of the desired concentration and the plants are infested with the brown planthopper (Nilaparvata lugens).
After 4 days mortality in % is determined. 100% means all planthoppers have been killed and 0% means none of the planthoppers have been killed.

Spodoptera frugiperda = Spodoptera frugiperda spray test; settings: in Zea mays, 168 h
Experimental: Spodoptera frugiperda—Spray Test
as §1, with “solvents” for “solvent,”, “and” for “and the concentrate”
Maize (Zea mays) leaf sections are sprayed with a preparation of the active ingredient of the desired concentration. Once dry, the leaf sections are infested with fall armyworm larvae (Spodoptera frugiperda).
After 7 days mortality in % is determined. 100% means all caterpillars have been killed and 0% means none of the caterpillars have been killed.

Ctenocephalides felis [2] = assay: Ctenocephalides felis in-vitro contact test adult cat flea; settings: Ctenocephalides felis; 5 μg/cm^2 (=500 g/ha), after 48 hours; read-out: efficacy (fleas dead or moribund)
Experimental: Ctenocephalides felis—In-Vitro Contact Test Adult Cat Flea
9 mg compound is solved in 1 ml acetone and diluted with acetone to the desired concentration. 250 μl of the test solution is filled in 25 ml glass test tubes and homogeneously distributed on the inner walls by rotation and tilting on a shaking device (2 h at 30 rpm). With a compound concentration of 900 ppm, an inner surface of 44.7 cm^2 and a homogeneous distribution, a dose of 5 μg/cm^2 is achieved.
After the solvent has evaporated, each test tube is filled with 5-10 adult cat fleas (Ctenocephalides felis), closed with a perforated lid and incubated in a lying position at room temperature and relative humidity. After 48 hours efficacy is determined. The fleas are patted on the ground of the tubes and are incubated on a heating plate at 45-50° C. for at most 5 minutes. Immotile or uncoordinated moving fleas, which are not able to escape the heat by climbing upwards, are marked as dead or moribund.
An efficacy of 100% means all fleas are dead or moribund; 0% means no fleas are dead or moribund.

Boophilus microplus = Boophilus microplus injection test; settings: Rhipicephalus microplus, 168 h, 20 μg/animal, egg deposition after 7 days, read-out: efficacy (infertile eggs)
Experimental: Boophilus microplus—Injection Test
(§3) Solvent: dimethyl sulfoxide
To produce a suitable preparation of active compound, 10 mg of active compound are dissolved in 0.5 ml solvent, and the concentrate is diluted with solvent to the desired concentration.
Five adult engorged female ticks (Boophilus microplus) are injected with 1 μl compound solution into the abdomen. The ticks are transferred into replica plates and incubated in a climate chamber.
After 7 days egg deposition of fertile eggs is monitored. Eggs where fertility is not visible are stored in a climate chamber till hatching after about 42 days. An efficacy of 100% means all eggs are infertile; 0% means all eggs are fertile.

Ctenocephalides felis [3] = assay: Ctenocephalides felis oral test; settings: Ctenocephalides felis, in Bos taurus, po, 48 h
Experimental: Ctenocephalides felis—Oral Test
as §3
To produce a suitable preparation of active compound, 10 mg of active compound are dissolved in 0.5 ml solvent, and the concentrate is diluted with cattle blood to the desired concentration.
Approximately 20 adult unfed cat fleas (Ctenocephalides felis) are placed in flea chambers. The blood chamber, sealed with parafilm on the bottom, are filled with cattle blood supplied with compound solution and placed on the gauze covered top of the flea chamber, so that the fleas are able to suck the blood. The blood chamber is heated to 37° C. whereas the flea chamber is kept at room temperature.
After 2 days mortality in % is determined. 100% means all the fleas have been killed; 0% means none of the fleas have been killed.

Myzus persicae [4] = assay: Myzus persicae spray test; settings: in Brassica rapa, foliar, 120 h
Experimental: Myzus persicae—Spray Test
as §1, with “solvents” for “solvent,”, “and” for “and the concentrate”
Chinese cabbage (Brassica pekinensis) leaf disks infected with all instars of the green peach aphid (Myzus persicae), are sprayed with a preparation of the active ingredient of the desired concentration.
as §2

[5] = tested on: Aedes aegypti strain MONHEIM; assay: Aedes aegypti test (AEDSAE surface treatment & contact assay); settings: 24 hours after contact, read-out: efficacy (mortality); for mortality at 4 mg/m2: surface concentration 4 mg/m^2, 30 minutes exposure; for mortality at 20 mg/m2: surface concentration 20 mg/m^2, 30 minutes exposure
Experimental: Aedes aegypti Test (AEDSAE Surface Treatment & Contact Assay)
(§4) Solvent: Aceton+2000 ppm rapeseed oil methyl ester (RME)
(§5) In order to produce a sufficient, active ingredient containing solution it is necessary to solve the test-compound in the solvent-mix (Acetone at 2 mg/ml/RME 2000 ppm). This solution is pipetted onto a glazed tile and after evaporation of the Acetone, adult mosquitoes of the species Aedes aegypti strain MONHEIM are placed onto the dried surface. The exposure time is 30 minutes.
(§6) Mortality in percent (%) is determined 24 hours after contact to the treated surface. 100% mortality means that all test-insects are dead, whereas 0% means that not a single insect died.

[6] = tested on: Culex quinquefasciatus strain P00; assay: Culex quinquefasciatus test (CULXFA surface treatment & contact assay); settings: 24 hours after contact, read-out: efficacy (mortality); for mortality at 4 mg/m2: surface concentration 4 mg/m^2, 30 minutes exposure; for mortality at 20 mg/m2: surface concentration 20 mg/m^2, 30 minutes exposure
Experimental: Culex quinquefasciatus Test (CULXFA Surface Treatment & Contact Assay)
as §4
as §5, with “Culex quinquefasciatus” for “Aedes aegypti”, “P00” for “MONHEIM”
as §6

[7] = tested on: Anopheles funestus strain FUMOZ-R; assay: Anopheles funestus test (ANPHFU surface treatment & contact assay); settings: 24 hours after contact, read-out: efficacy (mortality); for mortality at 4 mg/m2: surface concentration 4 mg/m^2, 30 minutes exposure; for mortality at 20 mg/m2: surface concentration 20 mg/m^2, 30 minutes exposure
Experimental: Anopheles funestus Test (ANPHFU Surface Treatment & Contact Assay)
as §4
as §5, with “Anopheles funestus” for “Aedes aegypti”, “FUMOZ-R (Hunt et al., Med Vet Entomol. 2005 September; 19(3):271-5)” for “MONHEIM”
as §6

Structure (SMILES)	pest or weed control at 160 µg/disc, 160 µg/well (Diabrotica balteata)	mortality at 4 ppm (Myzus persicae [1])	mortality at 500 g/ha (Nezara viridula)	mortality at 500 g/ha (Nilaparvata lugens)	mortality at 500 g/ha (Spodoptera frugiperda)	pest or weed control at 5 µg/cm2, 5 µg/cm2 (Ctenocephalides felis [2])	pest or weed control at 0.02 mg (Boophilus microplus)	mortality at 100 ppm (Ctenocephalides felis [3])	mortality at 500 g/ha (Myzus persicae [4])	mortality at 4 mg/m2 [5]	mortality at 20 mg/m2 [5]	mortality at 4 mg/m2 [6]	mortality at 20 mg/m2 [6]	mortality at 4 mg/m2 [7]	mortality at 20 mg/m2 [7]
C[C@H](NC(=O)c1cc(Cl)cc(S(=O)(=O)C(F)(F)F)c1)c1ncnn1-c1ncccn1 [Example I-033, 3-chloro-N-{(1S)-1-[1-(pyrimidin-2-yl)-1H-1,2,4-triazol-5-yl]ethyl}-5-[(trifluoromethyl)sulfonyl]benzamide]	100%	100%	100%	100%	100%	–	–	–	–	–	–	–	–	–	–
CC(c1ncnn1-c1ncccn1)N(CCC(F)(F)F)C(=O)c1cc(Cl)cc(S(C)(=O)=O)c1 (stereo not shown) [Example I-039]	100%	100%	100%	100%	–	100%	100%	100%	100%	–	–	–	–	–	–
CC(c1ncnn1-c1ncccn1)N(CC(F)F)C(=O)c1cc(Cl)cc(S(C)(=O)=O)c1 (stereo not shown) [Example I-041]	100%	100%	100%	100%	–	90%	100%	100%	–	80 to 100%	90 to 100%	80 to 100%	80 to 100%	85 to 100%	85 to 100%
CC(NC(=O)c1cc(Cl)cc(-n2cncn2)c1)c1ncnn1-c1ncccn1 (stereo not shown) [Example I-049]	100%	–	100%	100%	–	–	100%	100%	–	80 to 100%	90 to 100%	–	80 to 100%	85 to 100%	85 to 100%
CON=C(C)c1cc(Cl)cc(C(=O)N[C@@H](C)c2ncnn2-c2ncccn2)c1 [Example I-057, 3-chloro-5-(N-methoxyethanimidoyl)-N-{(1S)-1-[1-(pyrimidin-2-yl)-1H-1,2,4-triazol-5-yl]ethyl}benzamide]	80%	100%	100%	–	100%	100%	–	100%	90%	80 to 100%	90 to 100%	–	80 to 100%	–	–
C[C@H](NC(=O)c1cc(Cl)cc(S(=O)(=O)CC(F)(F)F)c1)c1ncnn1-c1ncccn1 [Example I-093, 3-chloro-N-{(1S)-1-[1-(pyrimidin-2-yl)-1H-1,2,4-triazol-5-yl]ethyl}-5-[(2,2,2-trifluoroethyl)sulfonyl]benzamide]	100%	90%	100%	–	–	–	–	–	–	80 to 100%	90 to 100%	80 to 100%	80 to 100%	85 to 100%	–
C[C@@H](NC(=O)c1cc(Cl)cc(S(C)(=O)=O)c1)c1ncnn1-c1ncc(C(F)(F)F)cn1 [Example I-095]	100%	100%	100%	–	100%	100%	–	–	90%	–	–	–	–	–	–
Cc1cnc(-n2ncnc2[C@@H](C)NC(=O)c2cc(Cl)cc(S(C)(=O)=O)c2)nc1 [Example I-096]	–	100%	100%	–	100%	–	–	–	90%	–	–	–	–	–	–
Cc1cnc(-n2ncnc2[C@@H](C)NC(=O)c2cc(Cl)cc(S(=O)(=O)C(F)(F)F)c2)nc1 [Example I-099]	100%	100%	100%	–	100%	–	–	–	100%	–	–	–	–	–	–
C[C@@H](NC(=O)c1csc(Cl)c1)c1ncnn1-c1ccc(C#N)cn1 [Example I-114]	100%	–	–	–	–	–	–	–	90%	–	–	–	–	–	–
C[C@H](NC(=O)c1cc(Cl)cc(C2(C#N)CC2)c1)c1ncnn1-c1ccc(C#N)cn1 [Example I-119, 3-chloro-5-(1-cyanocyclopropyl)-N-{(1S)-1-[1-(5-cyanopyridin-2-yl)-1H-1,2,4-triazol-5-yl]ethyl}benzamide]	100%	100%	100%	–	100%	–	–	–	90%	–	–	–	–	–	–
C[C@@H](NC(=O)c1cc(Cl)cc(C(C)(C)C)c1)c1ncnn1-c1ncccn1 [Example I-124]	100%	–	100%	–	–	–	–	–	100%	–	–	–	–	–	–
